# Columns and labels:
# Acute Toxicity Test = assay type: in vivo, Wister-strain male rats; conditions: emulsion i.v., 100 ml/kg-body weight, observed one week, male rats
# Method: The acute toxicity test on the preparations of the present invention was carried out using the preparations of the present invention shown in Table 4 which had been physiologically isotonized. The test animals used were Wister-strain male rats (weighing 100-120 g).
# The results are such that with either emulsion containing perfluoro-N-cyclohexylprrolidine or perfluoro-N-(3'-methylcyclohexyl)pyrrolidine, thre was no death case at 100 ml/kg-body weight and thus their toxicity are very small.
# [1] = Distribution of Perfluoro-compound in Organs; assay type: in vivo, Wister-strain male rats; conditions: 4 g/kg into the tail vein, male rats
# Source text: The content of perfluoro-N-cyclohexylpyrrolidine uptake in each organ 1, 2 and 4 weeks and 3 months after the administration are shown in Table 5.
Compound,death cases (Acute Toxicity Test),toxicity (Acute Toxicity Test),adverse influence on the liver or spleen organ [1],uptake by the reticulo-endothelial organs and disappearance [1],"Residual Rate of perfluoro-compound ([1]; Liver, 1 week after administration) [%]","Residual Rate of perfluoro-compound ([1]; Liver, 2 weeks after administration) [%]","Residual Rate of perfluoro-compound ([1]; Liver, 3 months after administration) [%]","Residual Rate of perfluoro-compound ([1]; Liver, 4 weeks after administration) [%]","Residual Rate of perfluoro-compound ([1]; Spleen, 1 week after administration) [%]","Residual Rate of perfluoro-compound ([1]; Spleen, 2 weeks after administration) [%]","Residual Rate of perfluoro-compound ([1]; Spleen, 3 months after administration) [%]","Residual Rate of perfluoro-compound ([1]; Spleen, 4 weeks after administration) [%]","half-life ([1]; rat, in vivo, iv, 4000 mg/kg, calculated) [days]"
"FC(F)(F)C1(F)C(F)(F)C(F)(F)C(F)(F)C(F)(N2C(F)(F)C(F)(F)C(F)(F)C2(F)F)C1(F)F (stereo not drawn) [Example 38, perfluoro-N-(3'-methylcyclohexyl)pyrrolidine]",no death case,very small,–,–,–,–,–,–,–,–,–,–,–
"FC1(F)N(C2(F)C(F)(F)C(F)(F)C(F)(F)C(F)(F)C2(F)F)C(F)(F)C(F)(F)C1(F)F [Example 1, perfluoro-N-cyclohexylpyrrolidine]",no death case,very small,no evidence of adverse influence on the liver or spleen organ,"taken up in greater amounts by the reticulo-endothelial organs shortly after the administration, but soon disappeared rapidly",21.23,13.63,0.24,4.98,12.33,10.49,0.51,8.52,16

# Source: patent publication US4534978A, “Perfluorocycloamines” (The Green Cross Corporation, priority 1984, dated 1985)
